The test system of one data set is liver tissue. Nature of the data set: Tissue necrosis study: necrotic zone of liver tissue after intrahepatic injection (Example 2). It is filed as in vivo, New Zealand Large White rabbits. The note with it: rabbit, in vivo. The procedure:
The rabbits were kept on conventional diet after drug administration, euthanized after 1 week, and the necrotic zone of the liver was determined after autopsy. The liver was incised along the center of the necrotic zone, and the extent of the necrotic zone was measured at the largest level, and the maximum and minimum diameters of the necrotic zone were measured respectively. The average diameter of the necrotic zone of liver tissue=(maximum diameter+minimum diameter)/2.

Data set [1] concerns mouse liver cancer Hepa1-6 cells. Nature of the data set: Series B: tumor inhibition, Hepa1-6 transplantation tumor in 8-month-old mice (Example 10). Type of data set: in vivo. The note with it: one intratumoral injection 100 μl/mouse. How it is done: The animals in series B were modeled in 8-month-old mice as a middle-aged and elderly patient model, which was not consistent with the commonly used young patient model in terms of tumor formation, tumor histomorphology, and body immunocompetence. […] The model animals were randomly divided into 13 groups. Each group was administered once by intratumoral injection according to the drug grouping in Table 11 with an injection volume of 100 μl/mouse.
The actual/expected ratio […] for short-term drug efficacy and the actual/expected ratio q14d for medium-term drug efficacy were calculated based on the drug efficacies (r′3d, […]) at different times (day 3, day 14), respectively.

Data set [2] has as its system outer lateral muscle of right leg. As to the kind of experiment: Series A: tissue destruction in normal muscle after intramuscular injection (Example 10). The conditions noted are these: one intramuscular injection 100 μl/mouse, day 3. Type of data set: in vivo, nude mice. The procedure: The test animals were divided into two series, A and B. The animals in series A were non-modeled nude mice, randomly divided into four groups, and were injected with the drugs according to groups 1-4 in Table 11 by intramuscular injection of outer lateral muscle of right leg. Each group was administered once, at an injection volume of 100 μl/mouse. On day 3 after the administration was ended, the animals were euthanized, and the specimens from outer lateral muscle mass of right leg of the nude mice were dissected and taken out, and gross pathological analysis was performed. The muscle sections were measured for distinguishing the area of tissue destruction region in the normal muscle (incomplete necrosis) (T3a) and the area of severe tissue destruction region therein (complete necrosis) […], and the results are shown in Table 11 below.

Another data set deals with sarcoma S180 cell. As to the kind of experiment: Tumor inhibition effect in mice bearing sarcoma S180 cell (Example 2). It is filed as in vivo. The conditions noted are these: intratumoral injection. How it is done:
(§1) In the following examples of the present invention, the co-administration pharmaceutical efficacies of drug A and drug B combination administration was determined by ratio q of actual pharmaceutical efficacy/expected pharmaceutical efficacy according to Zhengjun JIN method, as follows.
In the tumor inhibition effect study, successfully modeled experimental animals (mice bearing sarcoma S180 cell, with an average tumor volume of 314 mm^3) were randomly divided into 2 negative control groups (01, 02) and 9 drug study groups (1-9). […] The negative control and study drugs were administered by intraperitoneal injection (groups 02, 6 and 9) and intratumoral injection (other study groups), respectively. Each group was administered once every 3 days for a total of 3 times, with an injection volume of 150 μl/mouse. On the 5th day after the administration was ended, the animals were euthanized, and the tumor weight was measured after anatomy to the animals. The tumor inhibition rate was calculated from the negative control group of each drug administration mode.

For another data set, the system named is breast cancer 4T1 cells. Nature of the data set: Tumor inhibition, breast cancer 4T1 transplantation tumor (Example 3). It is filed as in vivo, BALB/c mouse. The conditions noted are these: intratumoral. How it is done: as §1
In an experiment, the test animal was a BALB/c mouse, the modeling cells were breast cancer 4T1 cells, and the transplantation tumor was modeled at 1×10^6 cells/mouse under the skin of the animal's right axilla. […] Each group was administered by intratumoral injection once every 3 days for a total of 3 times, each time at an injection dose of 150 μl/mouse. On the 5th day after the administration was ended, the animals were euthanized, and the tumor weight was determined after anatomy to the animals. The tumor inhibition rate was calculated from the negative control group.

A short description of data set [3]: pH of the study drug aqueous solution. The note with it: aqueous solution. Type of data set: physicochemical.
[4] abbreviates: 150 μl/mouse, once every 3 days x3, 5th day after end.

Consider `[Na+].[OH-]` [3% NaOH, sodium hydroxide], for which the “Diameter of necrotic zone of liver tissue (r ± s)” value in the data set on liver tissue is 1.8 ± 0.5 cm. Moreover, in data set [1] (day 3), the “r'3d, tumor inhibition rate (tumor volume)” value is listed as 31.2%. For the same compound, in data set [1] (day 14), the “r'14d, tumor inhibition rate (tumor volume)” value was determined as 2.8%. Besides, in data set [2], the “S3d, area of severe tissue destruction region (complete necrosis)” value was 18.3 mm^2. Besides, the “T3d, area of tissue destruction region in the normal muscle (incomplete necrosis)” value in data set [2] was determined as 29.6 mm^2. For the same compound, the “Tumor weight (x ± s)” value stood at 1.04 ± 0.21 g in the data set on sarcoma S180 cell (setting [4]) and 1.09 ± 0.25 g in the data set with breast cancer 4T1 cells (setting [4]). Besides, the values for the Tumor inhibition rate with sarcoma S180 cell (vs negative control group 01) and in the data set on breast cancer 4T1 cells (vs negative control) were 53% and 55%, respectively. Moreover, the pH in data set [3] (study drugs of Example 2 (Table 4)) was 13.8; in data set [3] (study drugs of Example 2 (Table 4), listed as 3% sodium hydroxide), 11.8; in data set [3] (study drugs of Example 3 (Table 5)) it was 13.7.
